According to patent US10703746B2, “Mutant IDH1 inhibitors useful for treating cancer” (THE UNITED STATES OF AMERICA, AS REPRESENTED BY THE …, priority 2014, dated 2020):

Legend:
IDH1 R132C = IDH1 R132C (Homo sapiens, UniProt O75874, R132C); experiment: IDH1 R132C enzymatic assay (NADPH depletion coupled to diaphorase/resazurin); assay type: biochemical; details: IDH1 R132C enzymatic inhibition, IC50 class
Method: (§1) Assays were conducted in a 1536-well black solid-bottom plate with a final assay volume of 9 μL.
For IDH1 R132C, 3 μL of enzyme (0.00032 mg/mL IDH1 […], 10% glycerol, 50 mM potassium phosphate pH 6.5, 5 mM MgCl2, 0.03% BSA) were added to the plate, followed by the addition of 23 nL of test compound in DMSO. The plate was lidded and incubated at room temperature for 30 minutes at which time 3 μL of substrate were added (0.012 mM NADPH, 0.6 mM α-KG, 10% glycerol, 50 mM potassium phosphate pH 6.5, 5 mM MgCl2, 0.03% BSA). […]

IDH1 R132H = IDH1 R132H (Homo sapiens, UniProt O75874, R132H); experiment: IDH1 R132H enzymatic assay (NADPH depletion coupled to diaphorase/resazurin); assay type: biochemical; details: IDH1 R132H enzymatic inhibition, IC50 class
Method: as §1
Specifically, for IDH1 R132H, 3 μL of enzyme (4 mM β-ME, 0.0005 mg/mL IDH1 R132H, 150 mM NaCl, 20 mM Tris pH 7.5, 10 mM MgCl2, 0.05% BSA) were added to the plate, followed by the addition of 23 nL of test compound in DMSO. The plate was lidded and incubated at room temperature for 30 minutes at which time 3 μL of substrate were added (0.016 mM NADPH, 2 mM α-KG, 150 mM NaCl, 20 mM Tris pH 7.5, 10 mM MgCl2, 0.05% BSA). This reaction was incubated at room-temperature for 60 minutes at which time the detection mix was added (0.06 mg/mL diaphorase, 0.036 mM resazurin, 150 mM NaCl, 20 mM Tris pH 7.5, 10 mM MgCl2, 0.05% BSA). […]

Chain of IDH1 R132H (O75874 whole entry R132H): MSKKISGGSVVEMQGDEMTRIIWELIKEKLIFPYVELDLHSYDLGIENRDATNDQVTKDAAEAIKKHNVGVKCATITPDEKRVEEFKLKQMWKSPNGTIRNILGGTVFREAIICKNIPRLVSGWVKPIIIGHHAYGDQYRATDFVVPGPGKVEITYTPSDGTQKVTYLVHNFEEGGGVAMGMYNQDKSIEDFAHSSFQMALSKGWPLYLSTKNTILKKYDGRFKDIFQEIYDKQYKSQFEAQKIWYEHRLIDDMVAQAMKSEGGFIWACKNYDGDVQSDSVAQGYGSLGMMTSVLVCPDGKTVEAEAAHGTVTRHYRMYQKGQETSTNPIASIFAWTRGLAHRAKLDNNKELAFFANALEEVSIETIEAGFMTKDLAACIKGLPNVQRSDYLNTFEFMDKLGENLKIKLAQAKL
Chain of IDH1 R132C (O75874 whole entry R132C): as the sequence (O75874 whole entry R132H) above, with H132C counted along it

Structure (SMILES) | IC50 (IDH1 R132C) [µM] | IC50 (IDH1 R132H) [µM]
CCc1cccc(CC)c1-n1c(CC(C)C)c(C(=O)N2CCC(CO)CC2)cc(-c2nc(-c3ccc(Cl)cc3)cs2)c1=O [Compound 94] | < 0.3 | 1 to 5
COc1cc(N)ccc1-n1c2c(cc(-c3nc(-c4ccc(Cl)cc4)cs3)c1=O)C(=O)CC(C)(C)C2 [Compound 95] | 1 to 5 | 1 to 5
CCc1cccc(CC)c1-n1c(C(C)C)c(C(=O)O)cc(-c2nc(-c3ccc(Cl)cc3)cs2)c1=O [Compound 98] | 5 to 20 | 1 to 5
CCc1cccc(CC)c1-n1c(C)c(C(=O)NC2CCNC2)cc(-c2nc(-c3ccc(Cl)cc3)cs2)c1=O (stereo not shown) [Compound 99] | 0.3 to 1 | 1 to 5
CC(=O)Nc1ccccc1-n1c2c(cc(-c3nc(-c4ccc(Cl)cc4)cs3)c1=O)C(=O)CC(C)(C)C2 [Compound 105] | 5 to 20 | 1 to 5
CCc1cccc(CC)c1-n1c(C)c(C(=O)NC)cc(-c2nc(-c3ccc(Cl)cc3)cs2)c1=O [Compound 108] | 1 to 5 | 1 to 5
CCc1cccc(CC)c1-n1c(CC(C)C)c(C(=O)N2C[C@@H](C)N[C@@H](C)C2)cc(-c2nc(-c3ccc(Cl)cc3)cs2)c1=O [Compound 112] | < 0.3 | 0.3 to 1
CCc1cccc(CC)c1-n1c(CC(C)C)c(C(=O)N2CC(C(=O)OC)NCC2C)cc(-c2nc(-c3ccc(Cl)cc3)cs2)c1=O (stereo not shown) [Compound 113] | 0.3 to 1 | 1 to 5
CCc1cccc(CC)c1-n1c(C)c(C(=O)NC2CCCNC2)cc(-c2nc(-c3ccc(Cl)cc3)cs2)c1=O (stereo not shown) [Compound 114] | 0.3 to 1 | 1 to 5
CC1(C)CC(=O)c2cc(-c3nc(-c4ccc(Cl)cc4)cs3)c(=O)n(-c3ccccc3CC(F)(F)F)c2C1 [Compound 115] | 0.3 to 1 | 0.3 to 1
CC1(C)CC(=O)c2cc(-c3nc(-c4ccc(Cl)cc4)cs3)c(=O)n(-c3ccccn3)c2C1 [Compound 121] | 5 to 20 | 5 to 20
COc1ccc(N)cc1-n1c2c(cc(-c3nc(-c4ccc(Cl)cc4)cs3)c1=O)C(=O)CC(C)(C)C2 [Compound 122] | 0.3 to 1 | 1 to 5
CCc1cccc(CC)c1-n1c(C)c(C(=O)NC(C)(C)C)cc(-c2nc(-c3ccc(Cl)cc3)cs2)c1=O [Compound 123] | 1 to 5 | 5 to 20
COc1ccc(OC)c(-n2c3c(cc(-c4nc(C)cs4)c2=O)C(=O)CC(C)(C)C3)c1 [Compound 124] | 5 to 20 | > 20
COc1ccc(OC)c(-n2c3c(cc(-c4nc(-c5ccc(Cl)cc5)cs4)c2=O)C(=O)CCC3)c1 [Compound 129] | 1 to 5 | 1 to 5
CC(C)Oc1ccccc1-n1c2c(cc(-c3nc(-c4ccc(Cl)cc4)cs3)c1=O)C(=O)CC(C)(C)C2 [Compound 130] | 0.3 to 1 | 1 to 5
CCc1cccc(CC)c1-n1c(CC(C)C)c(C(=O)N2CCN[C@@H](C(=O)OC)C2)cc(-c2nc(-c3ccc(Cl)cc3)cs2)c1=O [Compound 131] | < 0.3 | 1 to 5
CCc1cccc(CC)c1-n1c2c(cc(-c3nc(-c4ccncc4)cs3)c1=O)C(=O)CC(C)(C)C2 [Compound 132] | 1 to 5 | 1 to 5
CCSc1ccccc1-n1c2c(cc(-c3nc(-c4ccc(Cl)cc4)cs3)c1=O)C(=O)CC(C)(C)C2 [Compound 134] | 0.3 to 1 | 1 to 5
CCCSc1ccccc1-n1c2c(cc(-c3nc(-c4ccc(Cl)cc4)cs3)c1=O)C(=O)CC(C)(C)C2 [Compound 135] | 0.3 to 1 | 1 to 5
CCc1cccc(CC)c1-n1c(C)c(C(=O)N2CCNC(=O)C2)cc(-c2nc(-c3ccc(Cl)cc3)cs2)c1=O [Compound 138] | 1 to 5 | < 0.3
CCc1cccc(CC)c1-n1c(C)c(C(=O)O)cc(-c2nc(-c3ccc(Cl)cc3)cs2)c1=O [Compound 143] | 5 to 20 | 5 to 20
COc1ccc(OC)c(-n2c3c(cc(-c4nc(-c5ccc(Cl)cc5)cs4)c2=O)C=CC(C)(C)C3)c1 [Compound 144] | 1 to 5 | 1 to 5
CCc1cccc(CC)c1-n1c(CC(C)C)c(C(=O)N2CCNCC2c2ccccc2)cc(-c2nc(-c3ccc(Cl)cc3)cs2)c1=O (stereo not shown) [Compound 145] | < 0.3 | 0.3 to 1

Further lines, results first:

IC50 (IDH1 R132C) [µM] | IC50 (IDH1 R132H) [µM] | Structure (SMILES)
1 to 5 | 5 to 20 | COc1ccc(OC)c(-n2c(=O)c(-c3nc(-c4ccc(Cl)cc4)cs3)cc3c(OC)nccc32)c1 [Compound 97]
1 to 5 | 1 to 5 | CCc1cccc(CC)c1-n1c(CO)c(C(=O)NC)cc(-c2nc(-c3ccc(Cl)cc3)cs2)c1=O [Compound 100]
0.3 to 1 | 1 to 5 | CCc1cccc(CC)c1-n1c(C(C)C)c(C(=O)NC[C@@H](C)O)cc(-c2nc(-c3ccc(Cl)cc3)cs2)c1=O [Compound 101]
< 0.3 | 0.3 to 1 | CCc1cccc(CC)c1-n1c(CC(C)C)c(C(=O)N2CCN[C@@H](C(=O)O)C2)cc(-c2nc(-c3ccc(Cl)cc3)cs2)c1=O [Compound 102]
5 to 20 | 1 to 5 | CCc1cccc(CC)c1-n1c(C)c(C(=O)N2CCC(O)C2)cc(-c2nc(-c3ccc(Cl)cc3)cs2)c1=O (stereo not shown) [Compound 103]
1 to 5 | 1 to 5 | CCc1cccc(CC)c1-n1c(CC(C)C)c(C(=O)N2CCNCC2)cc(-c2ccn(-c3ccccc3)n2)c1=O [Compound 104]
0.3 to 1 | < 0.3 | CCc1cccc(CC)c1-n1c(C)c(C(=O)N2CCNC(CO)C2)cc(-c2nc(-c3ccc(Cl)cc3)cs2)c1=O (stereo not shown) [Compound 106]
< 0.3 | 0.3 to 1 | CCc1cccc(CC)c1-n1c(CC(C)C)c(C(=O)N2CCNC(C)C2C)cc(-c2nc(-c3ccc(Cl)cc3)cs2)c1=O (stereo not shown) [Compound 107]
5 to 20 | 1 to 5 | CCc1cccc(CC)c1-n1c(C)c(C(=O)N2CCC(C(=O)O)CC2)cc(-c2nc(-c3ccc(Cl)cc3)cs2)c1=O [Compound 109]
1 to 5 | 1 to 5 | CCc1cccc(CC)c1-n1c(C)c(C(=O)N2CCOCC2)cc(-c2nc(-c3ccc(Cl)cc3)cs2)c1=O [Compound 110]
5 to 20 | > 20 | COc1ccc(OC)c(-n2c3c(cc(-c4cccc(-c5ccc(Cl)cc5)c4)c2=O)C(=O)CC(C)(C)C3)c1 [Compound 111]
1 to 5 | > 20 | CCc1cccc(CC)c1-n1c(C)c(C(=O)NC2CCCCC2)cc(-c2nc(-c3ccc(Cl)cc3)cs2)c1=O [Compound 116]
< 0.3 | 1 to 5 | CCc1cccc(CC)c1-n1c(CC(C)C)c(C(=O)N2CCNC(C(=O)OC)C2)cc(-c2nc(-c3ccc(Cl)cc3)cs2)c1=O (stereo not shown) [Compound 117]
< 0.3 | 0.3 to 1 | CCc1cccc(CC)c1-n1c(CC(C)C)c(C(=O)NC(C)CO)cc(-c2nc(-c3ccc(Cl)cc3)cs2)c1=O (stereo not shown) [Compound 118]
1 to 5 | 5 to 20 | CCc1cccc(CC)c1-n1c2c(cc(-c3nc(-c4cccnc4)cs3)c1=O)C(=O)CC(C)(C)C2 [Compound 119]
> 20 | > 20 | COc1ccc(OC)c(-n2c3c(cc(-n4cc(-c5ccccc5)cn4)c2=O)C(=O)CC(C)(C)C3)c1 [Compound 120]
1 to 5 | 1 to 5 | CCc1cccc(CC)c1-n1c(C(C)C)c(C(=O)OC)cc(-c2nc(-c3ccc(Cl)cc3)cs2)c1=O [Compound 125]
< 0.3 | 0.3 to 1 | CCc1cccc(CC)c1-n1c(CC(C)C)c(C(=O)NCC(O)C(F)(F)F)cc(-c2nc(-c3ccc(Cl)cc3)cs2)c1=O (stereo not shown) [Compound 127]
1 to 5 | 1 to 5 | COc1ccc([N+](=O)[O-])cc1-n1c2c(cc(-c3nc(-c4ccc(Cl)cc4)cs3)c1=O)C(=O)CC(C)(C)C2 [Compound 128]
1 to 5 | 5 to 20 | CCc1cccc(CC)c1-n1c(C)c(C(=O)N(C)CCCNC)cc(-c2nc(-c3ccc(Cl)cc3)cs2)c1=O [Compound 133]
> 20 | > 20 | COc1cc(C(=O)O)ccc1-n1c2c(cc(-c3nc(-c4ccc(Cl)cc4)cs3)c1=O)C(=O)CC(C)(C)C2 [Compound 136]
> 20 | > 20 | CCc1cccc(CC)c1-n1c(CC(C)C)c(C(=O)N2CCNCC2)cc(-c2nc(-c3ccc(N4CCNCC4)cc3)c(C)s2)c1=O [Compound 137]
1 to 5 | 1 to 5 | CCc1cccc(CC)c1-n1c(C)c(C(=O)N2CC(N)C2)cc(-c2nc(-c3ccc(Cl)cc3)cs2)c1=O [Compound 139]
5 to 20 | 5 to 20 | CCc1cccc(CC)c1-n1c(CC(C)C)c(C(=O)NC[C@H](NC(C)=O)C(=O)O)cc(-c2nc(-c3ccc(Cl)cc3)cs2)c1=O [Compound 140]
< 0.3 | 0.3 to 1 | CCc1cccc(CC)c1-n1c(CC(C)C)c(C(=O)N2CCN[C@@H](C)C2)cc(-c2nc(-c3ccc(Cl)cc3)cs2)c1=O [Compound 141]
0.3 to 1 | < 0.3 | CCc1cccc(CC)c1-n1c(C)c(C(=O)N2CCNC[C@H]2C)cc(-c2nc(-c3ccc(Cl)cc3)cs2)c1=O [Compound 142]
